# Reference: patent US8802708B2 (priority 2004, dated 2014)
# Where “and” joins values, the source holds several entries; their conditions need not be identical. Equal entries are not always repeated. Where two headings read alike, the source gives them in different places.
# Tests used:
# late blight fungus = format: in vivo, tomato (variety: Ponderosa); conditions: for synergistic effect in mixed use with Compound No. 1: within the same concentration range as the preceding table
# downy mildew [1] = experiment: Cucumber downy mildew treating effect test (Test Example 1, Compound No. 1 with other fungicides); format: in vivo, cucumber (variety: Sagami Hanjiro)
# Description: A cucumber (variety: Sagami Hanjiro) was cultivated in a plastic pot of 7.5 cm in diameter, and when it reached the bifoliate stage, a spore suspension of downy mildew was spray-inoculated thereto. Each of the liquids to be tested was sprayed thereto 17 hours thereafter using a spray gun at a ratio of 5 ml per seedling. In addition, the above-described Compound No. 1 liquid was also sprayed in the same manner. After keeping in a constant temperature chamber at 22 to 24° C. for 6 days, area of the lesion on the first leaf was inspected to calculate lesion area ratio (%), with the results shown in Table 3 and Table 4. In addition, each of the theoretical values of the infection ratio calculated based on the Colby's formula is also shown by the parentheses in Table 3 and Table 4.
# downy mildew [2] = experiment: Cucumber downy mildew treating effect test (Reference Example, Compound No. 1 with spreaders); format: in vivo, cucumber (variety: Sagami Hanjiro); conditions: no mixed use of spreader
# Description: An effect reinforcing component was dispersed in water to a concentration of from 1,000 times to 10,000 times, and then the above-described Compound No. […] In this case, the spreaders shown in Table 1 and Table 2 were used as the effect reinforcing components. In addition, for the sake of comparison, a predetermined concentration (63 ppm or 16 ppm) of Compound No. 1 liquid containing no effect reinforcing component was prepared in the same manner as the above-described water dispersion.
# A cucumber (variety: Sagami Hanjiro) was cultivated in a plastic pot of 7.5 cm in diameter, and when it reached the bifoliate stage, a spore suspension of downy mildew was spray-inoculated thereto. Each of the water dispersions to be tested was sprayed thereto 17 hours thereafter using a spray gun at a ratio of 5 ml per seedling. In addition, the above-described Compound No. 1 liquid was also sprayed in the same manner. After keeping in a constant temperature chamber at 22 to 24° C. for 6 days, area of the lesion on the first leaf was inspected to calculate lesion area ratio (%), with the results shown in Table 1 and Table 2. In addition, each of the theoretical values of the infection ratio calculated based on the Colby's formula was also shown by the parentheses in Table 1 and Table 2. In this connection, results similar to those which are shown in Table 1 and Table 2 are obtained within the same concentration range when a liquid comprising the Compound No. 1 and at least one selected from the group consisting of Dimethomorph, Chlorothalonil, a copper compound, Iprovalicarb, Zoxamide, phosphorous acid or a salt thereof, Fluazinam, Cyazofamid, Flumorph, Benthiavalicarb-isopropyl, Ethaboxam, Methalaxyl-M and Benalaxyl-M was used instead of the Compound No. 1 liquid.
# [3] = other fungicide alone 25 g/ha, 300 liters per hectare
# [4] = other fungicide alone 100 g/ha, 300 liters per hectare
# [5] = other fungicide alone 250 g/ha, 300 liters per hectare
# [6] = other fungicide alone 250 ppm (Compound No. 1 0 ppm)
# [7] = other fungicide alone 200 ppm (Compound No. 1 0 ppm)
smiles,measurement,setting,value
"[Cl-].[Cu+2].[Cu+2].[OH-].[OH-].[OH-] [Basic copper chloride, basic copper chloride]",lesion area ratio,"late blight fungus; other fungicide alone 500 ppm, sprayed at 10 ml per seedling",100%
same,lesion area ratio,"late blight fungus; other fungicide alone 1,000 ppm, sprayed at 10 ml per seedling",100%
same,lesion area ratio,"downy mildew [1]; other fungicide alone 1,000 ppm (Compound No. 1 0 ppm)",100%
COC(=O)[C@@H](C)N(C(=O)Cc1ccccc1)c1c(C)cccc1C [Benalaxyl-M],lesion area ratio,late blight fungus; [3],50.0%
same,lesion area ratio,late blight fungus; [4],25.0%
same,lesion area ratio,late blight fungus; [5],6.25%
CC(C)OC(=O)N[C@H](C(=O)N[C@H](C)c1nc2ccc(F)cc2s1)C(C)C [Benthiavalicarb-isopropyl],synergistic effect in mixed use with Compound No. 1,late blight fungus,Synergistic effect can also be obtained
N#Cc1c(Cl)c(Cl)c(Cl)c(C#N)c1Cl [Chlorothalonil],lesion area ratio,"late blight fungus; other fungicide alone 13 ppm, sprayed at 10 ml per seedling",100%
same,lesion area ratio,"late blight fungus; other fungicide alone 25 ppm, sprayed at 10 ml per seedling",17%
same,lesion area ratio,late blight fungus; [4],18.8%
same,lesion area ratio,late blight fungus; [5],25.0%
same,lesion area ratio,downy mildew [1]; other fungicide alone 500 ppm (Compound No. 1 0 ppm),100%
"Cc1c(Br)c2ccc(F)cc2n1S(=O)(=O)c1ncn(S(=O)(=O)N(C)C)n1 [Compound No. 1, 1-(N,N-dimethylsulfamoyl)-3-(3-bromo-6-fluoro-2-methylindol-1-yl)sulfonyl-1,2,4-triazole]",lesion area ratio,"late blight fungus; Compound No. 1 1 ppm, no mixed use of other fungicide, sprayed at 10 ml per seedling",83%
same,lesion area ratio,"late blight fungus; Compound No. 1 alone 25 g/ha, 300 liters per hectare",62.5% and 37.5%
same,lesion area ratio,"late blight fungus; Compound No. 1 alone 250 g/ha, 300 liters per hectare",31.3% and 25.0% and 37.5%
same,lesion area ratio,downy mildew [2]; Compound No. 1 4 ppm,30%
same,lesion area ratio,downy mildew [2]; Compound No. 1 16 ppm,60%
same,lesion area ratio,downy mildew [2]; Compound No. 1 63 ppm,40%
same,lesion area ratio,"downy mildew [1]; Compound No. 1 4 ppm, no mixed use of other fungicide",30%
same,lesion area ratio,"downy mildew [1]; Compound No. 1 16 ppm, no mixed use of other fungicide",60%
same,lesion area ratio,"downy mildew [1]; Compound No. 1 63 ppm, no mixed use of other fungicide",40%
"[Cu+2].[OH-].[OH-] [Cupric hydroxide, cupric hydroxide]",lesion area ratio,"late blight fungus; other fungicide alone 200 g/ha, 300 liters per hectare",50.0%
same,lesion area ratio,"late blight fungus; other fungicide alone 800 g/ha, 300 liters per hectare",43.3%
same,lesion area ratio,"late blight fungus; other fungicide alone 2000 g/ha, 300 liters per hectare",43.8%
Cc1ccc(-c2c(Cl)nc(C#N)n2S(=O)(=O)N(C)C)cc1 [Cyazofamid],lesion area ratio,"late blight fungus; other fungicide alone 10 g/ha, 300 liters per hectare",25.0%
same,lesion area ratio,"late blight fungus; other fungicide alone 40 g/ha, 300 liters per hectare",18.8%
COc1ccc(C(=CC(=O)N2CCOCC2)c2ccc(Cl)cc2)cc1OC [Dimethomorph],lesion area ratio,late blight fungus; [3],87.5%
same,lesion area ratio,late blight fungus; [4],75.0%
same,lesion area ratio,late blight fungus; [5],62.5%
same,lesion area ratio,downy mildew [1]; [6],100%
same,lesion area ratio,downy mildew [1]; other fungicide alone 350 ppm (Compound No. 1 0 ppm),100%
CCNc1nc(CC)c(C(=O)NC(C#N)c2cccs2)s1 (centres unmarked) [Ethaboxam],lesion area ratio,late blight fungus; [3],6.25%
same,lesion area ratio,late blight fungus; [4],6.25%
same,lesion area ratio,downy mildew [1]; [7],30%
O=[N+]([O-])c1cc(C(F)(F)F)c(Cl)c([N+](=O)[O-])c1Nc1ncc(C(F)(F)F)cc1Cl [Fluazinam],lesion area ratio,late blight fungus; [4],37.5%
same,lesion area ratio,late blight fungus; [5],37.5%
COc1ccc(/C(=C\C(=O)N2CCOCC2)c2ccc(F)cc2)cc1OC [Flumorph],lesion area ratio,late blight fungus; [4],31.3%
same,lesion area ratio,late blight fungus; [5],12.5%
Cc1ccc(C(C)NC(=O)[C@@H](NC(=O)OC(C)C)C(C)C)cc1 (some centres unmarked) [Iprovalicarb],lesion area ratio,late blight fungus; [3],25.0%
same,lesion area ratio,late blight fungus; [4],6.25%
same,lesion area ratio,late blight fungus; [5],6.25%
same,lesion area ratio,downy mildew [1]; [6],100%
COCC(=O)N(c1c(C)cccc1C)[C@H](C)C(=O)OC [Metalaxyl-M],synergistic effect in mixed use with Compound No. 1,late blight fungus,Synergistic effect can also be obtained
"O=[PH]([O-])[O-].[K+].[K+] [Potassium phosphite, potassium phosphite (K2HPO3)]",lesion area ratio,downy mildew [1]; [6],100%
CCCOC(=O)NCCCN(C)C [Propamocarb],lesion area ratio,late blight fungus; [4],87.5%
same,lesion area ratio,"late blight fungus; other fungicide alone 400 g/ha, 300 liters per hectare",75.0%
same,lesion area ratio,"downy mildew [1]; other fungicide alone 1,600 ppm (Compound No. 1 0 ppm)",60%
"O=[PH]([O-])[O-].[Na+].[Na+] [Sodium phosphite, sodium phosphite (Na2HPO3)]",lesion area ratio,"late blight fungus; other fungicide alone 500 g/ha, 300 liters per hectare",75.0%
same,lesion area ratio,"late blight fungus; other fungicide alone 1000 g/ha, 300 liters per hectare",75.0%
same,lesion area ratio,"late blight fungus; other fungicide alone 1500 g/ha, 300 liters per hectare",50.0%
CCC(C)(NC(=O)c1cc(Cl)c(C)c(Cl)c1)C(=O)CCl (centres unmarked) [Zoxamide],lesion area ratio,late blight fungus; [3],43.8%
same,lesion area ratio,late blight fungus; [4],50.0%
same,lesion area ratio,downy mildew [1]; [7],100%
